Consider 26 molecules from patent US20220119355A1, “SATURATED-RING-FUSED DIHYDROPYRIMIDINONE OR DIHYDROTRIAZINONE COMPOUNDS AND PHARMACEUTICAL USE THEREOF” (Japan Tobacco Inc., priority 2018, published 2022).

The target of one assay is T1, mouse RORγ (Mus musculus, UniProt P51450).
T1 construct: from Ile251 to Lys516 for mouse RORγ; expressed in transfected cells; host or cells: CHO cells (transient co-transfection with pG5-Luc)
T1 sequence (P51450 251-516): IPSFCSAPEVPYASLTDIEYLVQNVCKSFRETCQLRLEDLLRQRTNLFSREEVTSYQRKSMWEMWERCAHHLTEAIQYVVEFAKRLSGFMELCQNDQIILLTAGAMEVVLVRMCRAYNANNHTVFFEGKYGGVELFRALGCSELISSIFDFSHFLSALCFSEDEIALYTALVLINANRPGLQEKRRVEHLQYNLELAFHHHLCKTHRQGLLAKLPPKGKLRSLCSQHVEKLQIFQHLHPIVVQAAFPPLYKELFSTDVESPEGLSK
Briefly: In-vitro reporter gene assay for inhibitory activity against RORγ transcription, Test Method B (pFA/mRORγ LBD / pG5-Luc in CHO cells). Particulars: for EC50: luciferase reporter, CHO cells, 2 days. The class given is cell-based. As for the experimental part:
(§1) In-Vitro Assay for Inhibitory Activity Against RORγ Transcription
(§2) Inhibitory activity against RORγ transcription was assessed for test compounds by either of the following Test Method A or B of reporter gene assay.
(§3) cDNAs encoding human and mouse RORγ ligand binding domains (LBD) were obtained based on the sequences of human RORγ (Genbank registered number NM_005060.3) and mouse RORγ (Genbank registered number NM_011281.2) (LBD sequences: from Ser253 to Lys518 for human RORγ; from Ile251 to Lys516 for mouse RORγ).
(§4) LBD cDNAs of human and mouse RORγ were inserted into pFA-CMV vector (Agilent Technologies, Inc.), which expresses GAL4-DNA binding domain fusion protein. The resulting plasmids are hereinafter referred to as pFA/hRORγ plasmid and pFA/mRORγ plasmid, respectively.
(§5) pFA/hRORγ plasmid or pFA/mRORγ plasmid was transiently co-transfected into Chinese hamster ovary cells (CHO cells) with pG5-Luc (Promega), reporter plasmid expressing firefly luciferase in a GAL4-dependent manner.
(§6) TransIT (Registered trademark) CHO Transfection Kit (Mirus) was used to co-transfect CHO cells with the plasmids. One day prior to the assay, CHO cells were suspended in HAM F-12 Nutrient medium containing 10% (v/v) fetal bovine serum and seeded at 5.5×10^6 cells per 225 cm^2 cell culture flask each. 72 μL of TransIT (Registered trademark) CHO reagent was added into a 2 mL tube containing 1.55 mL of Opti-MEM, and then mixed and incubated at room temperature for 10 minutes. 50.4 μL of a plasmid solution containing 300 ng of pFA/hRORγ plasmid, 12000 ng of pG5-Luc plasmid, and 11700 ng of pcDNA3.1 plasmid were added into the tube and mixed gently. In the case of mouse assay, a plasmid solution containing 300 ng of pFA/mRORγ plasmid, 12000 ng of pG5-Luc plasmid, and 11700 ng of pcDNA3.1 plasmid was added, instead. The mixture was incubated at room temperature for 10 minutes. 12 μL each of CHO Mojo Reagent were then added into each tube and mixed gently. The mixture was incubated at room temperature for 10 minutes. The resulting transfection reagent was applied to the cell culture. After incubation at 37° C., 5% CO2 for 4 hours, the plasmid-transfected CHO cells were harvested by trypsin treatment. The collected cells were resuspended in culture medium and plated into a 384-well-white plate at 8,000 cells/35 μL/well. The plate was let stand at room temperature for 1 hour and then further incubated at 37° C., 5% CO2 for 3 hours. A test compound was dissolved in dimethyl sulfoxide (DMSO) to obtain a concentration of 10 mM. Each solution was serially diluted with DMSO and further diluted with culture medium just before use. The test compound solutions were added to the cells in the plate at 6 different concentrations. The final concentration of DMSO was 0.2% (v/v). After the addition of test compound, the cells were incubated at 37° C., 5% CO2 for 2 days.
(§7) RORγ transcriptional activity was detected as the intracellular luciferase activity using SteadyLite HTS Reporter Gene Assay System (Perkin Elmer). SteadyLite Reagent was diluted 2.5-fold with Extension buffer (10 mM Tricine, 0.2% (w/v) bovine serum albumin, 0.02% (v/v) Tween-20) to obtain a luciferase substrate solution. Two days after the addition of test compound, 40 μL each of the luciferase substrate solution was added into the 384-well-plate. After the incubation at room temperature for 10 minutes, luminescence of each well was measured with a microplate reader. The luciferase activity derived from the luminescence count in a vehicle-control well treated with 0.2% DMSO alone was defined as 100%, and the luciferase activity after treatment of the test compound was calculated as a percentage, %-of-control, based on the value of the vehicle-control. An EC50 value of the test compound was calculated by curve fitting. The luminescence counts at the concentration of test compound where cytotoxicity was observed were excluded from data analysis. […]

The next assay deals with T2, human RORγ (Homo sapiens, UniProt P51449).
T2 construct: from Ser253 to Lys518 for human RORγ; expressed in transfected cells; host or cells: CHO cells (transient co-transfection with pG5-Luc)
T2 sequence (P51449 253-518): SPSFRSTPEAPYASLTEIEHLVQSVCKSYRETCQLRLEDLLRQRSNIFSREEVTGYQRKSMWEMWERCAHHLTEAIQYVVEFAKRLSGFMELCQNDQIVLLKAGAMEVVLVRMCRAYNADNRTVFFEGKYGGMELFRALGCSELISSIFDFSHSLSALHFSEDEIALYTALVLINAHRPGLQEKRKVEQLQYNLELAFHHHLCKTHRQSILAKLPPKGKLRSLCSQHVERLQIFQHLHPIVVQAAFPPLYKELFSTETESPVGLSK
Briefly: In-vitro reporter gene assay for inhibitory activity against RORγ transcription, Test Method B (pFA/hRORγ LBD / pG5-Luc in CHO cells). The note with it: for EC50: luciferase reporter, CHO cells, 2 days. Format: cell-based. As for the experimental part: as §1, §2, §3, §4, §5, §6, §7

Where [1] appears, read: vehicle-control 0.2% DMSO = 100%.

Consider `CC(C)(C)CCc1ccc([C@@]23CCC(C)(C)CC2=CN(C24CC(C(=O)O)(C2)C4)C(=O)N3)cc1Cl` (single isomer, unassigned) [Example 103], for which the results for the half-maximal effective concentration (EC50) at mouse RORγ and on human RORγ were 0.046 µM and 0.026 µM, respectively.

`CC1C2=CN(C34CC(C(=O)O)(C3)C4)C(=O)NC2(c2ccc(CCC(C)(C)C)c(Cl)c2)CC1(C)C` (single isomer, unassigned) [Example 34]: the EC50 on mouse RORγ stood at 0.169 µM; at human RORγ, 0.087 µM.

On to `CC(C)Oc1ccc(C23CCCCC2=CN(CCC(=O)O)C(=O)N3)cc1Cl` (racemic) [Example 96], for which the EC50 at mouse RORγ and at human RORγ was above 10 µM throughout. Moreover, the “mRORγ luciferase activity after treatment with test compound, %-of-control” value at mouse RORγ (setting [1]) is on record as “(84%)”. Besides, the “hRORγ luciferase activity after treatment with test compound, %-of-control” value on human RORγ (setting [1]) was “(84%)”.

For the molecule `O=C(O)CCN1C=C2CCCCC2(c2ccc(OC3CCCCC3)c(Cl)c2)NC1=O` (racemic) [Example 95], the EC50 at mouse RORγ worked out at 0.455 µM; on human RORγ it was 2.34 µM.

Regarding `CC(C)(C)CCc1ccc([C@@]23CCC(F)(F)CC2=CN(C24CC(C(=O)O)(C2)C4)C(=O)N3)cc1Cl` (single isomer, unassigned) [Example 87], the EC50 at mouse RORγ was determined as 0.029 µM; on human RORγ, 0.038 µM.

Take `C[C@@H]1CCC2(c3ccc(CCC(C)(C)C)c(Cl)c3)NC(=O)N(C34CC(C(=O)O)(C3)C4)C=C2[C@@H]1C` (single isomer, unassigned) [Example 106]: the EC50 on mouse RORγ was 4.78 µM; at human RORγ it was 4.4 µM.

With `CC(C)C1CC[C@@]2(c3ccc(CCC(C)(C)C)c(Cl)c3)NC(=O)N([C@H]3CC[C@@H](C(=O)O)C3)C=C2C1` (single isomer, unassigned) [Example 105], the EC50 is 0.113 µM at mouse RORγ and 0.102 µM on human RORγ.

On to `CC1C2=CN(C34CC(C(=O)O)(C3)C4)C(=O)N[C@]2(c2ccc(CCC(C)(C)C)c(Cl)c2)CCC1(C)C` (single isomer, unassigned) [Example 118], for which the EC50 on mouse RORγ is 0.082 µM; on human RORγ, 0.033 µM.

Turning to `CC1CC[C@]2(c3ccc(CCC(C)(C)C)c(Cl)c3)NC(=O)N(C34CCC(C(=O)O)(C3)C4)C=C2C1` (single isomer, unassigned) [Example 111], the half-maximal effective concentration (EC50) at mouse RORγ came out at 3.66 µM; on human RORγ, 3.45 µM.

On to `CC1C2=CN(C34CCC(C(=O)O)(C3)C4)C(=O)N[C@]2(c2ccc(CCC(C)(C)C)c(Cl)c2)COC1(C)C` (single isomer, unassigned) [Example 120], for which the EC50 worked out at 0.02 µM at mouse RORγ and 0.013 µM on human RORγ.

`CC(C)C1CC[C@@]2(c3ccc(CCC(C)(C)C)c(Cl)c3)NC(=O)N(C34CC(C(=O)O)(C3)C4)C=C2C1` (single isomer, unassigned) [Example 99]: the EC50 at mouse RORγ was 0.146 µM; at human RORγ it was 0.053 µM.

Consider `CCCCOc1ccc(C23CCCCC2=CN(CCC(=O)O)C(=O)N3)cc1Cl` (racemic) [Example 101], for which the figures for the EC50 on mouse RORγ and at human RORγ were 1.39 µM and 7.28 µM, respectively.

Regarding `CC1C2=CN(C34CC(C(=O)O)(C3)C4)C(=O)N[C@]2(c2ccc(CCC(C)(C)C)c(Cl)c2)COC1(C)C` (single isomer, unassigned) [Example 109], the values for the EC50 on mouse RORγ and on human RORγ were 0.036 µM and 0.033 µM, respectively.

Turning to `CC(C)C1CC[C@]2(c3ccc(CCC(C)(C)C)c(Cl)c3)NC(=O)N([C@H]3CC[C@@H](C(=O)O)C3)C=C2C1` (single isomer, unassigned) [Example 104], the EC50 at mouse RORγ was 5.28 µM; on human RORγ, 5.26 µM.

`CC1C2=CN(C34CCC(C(=O)O)(C3)C4)C(=O)N[C@@]2(c2ccc(CCC(C)(C)C)c(Cl)c2)COC1(C)C` (single isomer, unassigned) [Example 119]: the EC50 at mouse RORγ and at human RORγ was above 10 µM each time.

Take `C[C@H]1CCC2(c3ccc(C4C(C(C)(C)C)C4(F)F)c(Cl)c3)NC(=O)N(C34CCC(C(=O)O)(C3)C4)C=C2[C@@H]1C` (single isomer, unassigned) [Example 116]: the EC50 on mouse RORγ came out at 0.101 µM; on human RORγ, 0.044 µM.

Take `CC(C)(C)CCc1ccc(C23CCC(C#N)CC2=CN(C24CC(C(=O)O)(C2)C4)C(=O)N3)cc1Cl` (single isomer, unassigned) [Example 97]: the EC50 came to 0.156 µM at mouse RORγ and 0.11 µM at human RORγ.

On to `CC1CC[C@]2(c3ccc(CCC(C)(C)C)c(Cl)c3)NC(=O)N(C34CC(C(=O)O)(C3)C4)C=C2C1` (single isomer, unassigned) [Example 91], for which the EC50 at mouse RORγ was found to be 0.185 µM; at human RORγ it was 0.111 µM.

In the case of `C[C@H]1CCC2(c3ccc(C4C(C(C)(C)C)C4(F)F)c(Cl)c3)NC(=O)N(C34CC(C(=O)O)(C3)C4)C=C2[C@@H]1C` (single isomer, unassigned) [Example 113], the EC50 at mouse RORγ came out at 0.037 µM; on human RORγ, 0.033 µM.

Take `CC1C2=CN(C34CC(C(=O)O)(C3)C4)C(=O)N[C@@]2(c2ccc(CCC(C)(C)C)c(Cl)c2)CCC1(C)C` (single isomer, unassigned) [Example 117]: the EC50 on mouse RORγ is 5.3 µM; on human RORγ, 4.68 µM.

As for `C[C@H]1CCC2(c3ccc(C4C(C(C)(C)C)C4(F)F)c(Cl)c3)NC(=O)N(C34CC(C(=O)O)(C3)C4)C=C2[C@@H]1C` (single isomer, unassigned) [Example 114], the EC50 on mouse RORγ was 0.05 µM; at human RORγ it was 0.027 µM.

Turning to `CC(C)(C)CCc1ccc([C@]23CCC(F)(F)CC2=CN(C24CC(C(=O)O)(C2)C4)C(=O)N3)cc1Cl` (single isomer, unassigned) [Example 86], the EC50 at mouse RORγ worked out at 4.37 µM; on human RORγ it was 4.94 µM.

For `CC(C)(C)CCc1ccc([C@]23CCC(C)(C)CC2=CN(C24CC(C(=O)O)(C2)C4)C(=O)N3)cc1Cl` (single isomer, unassigned) [Example 102], the EC50 was 4.57 µM at mouse RORγ and 3.95 µM at human RORγ.

With `CC1CC[C@]2(c3ccc(CCC(C)(C)C)c(Cl)c3)NC(=O)N(C34CC(C(=O)O)(C3)C4)C=C2C1` (single isomer, unassigned) [Example 89], the EC50 turned out to be 4.19 µM on mouse RORγ and 3.71 µM at human RORγ.

In the case of `CC1CC[C@@]2(c3ccc(CCC(C)(C)C)c(Cl)c3)NC(=O)N(C34CCC(C(=O)O)(C3)C4)C=C2C1` (single isomer, unassigned) [Example 112], the EC50 amounted to 0.038 µM on mouse RORγ and 0.035 µM at human RORγ.

Take `CC1C2=CN(C34CCC(C(=O)O)(C3)C4)C(=O)N[C@]2(c2ccc(CCC(C)(C)C)c(Cl)c2)COC1(C)C` (single isomer, unassigned) [Example 121]: the EC50 at mouse RORγ turned out to be 0.04 µM; at human RORγ, 0.035 µM.
